In one series the target is T1, S. aureus UPPS (Staphylococcus aureus, UniProt P60477).
T1 sequence (P60477 1-256): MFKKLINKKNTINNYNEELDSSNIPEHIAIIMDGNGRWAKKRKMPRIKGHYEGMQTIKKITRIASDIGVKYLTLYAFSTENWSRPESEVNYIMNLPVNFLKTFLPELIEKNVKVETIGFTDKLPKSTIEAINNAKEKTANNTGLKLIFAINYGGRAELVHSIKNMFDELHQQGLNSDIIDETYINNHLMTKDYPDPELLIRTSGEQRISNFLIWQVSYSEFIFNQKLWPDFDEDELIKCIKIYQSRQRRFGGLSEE
Put plainly: S. aureus UPPS inhibition. Type of series: biochemical.

A further series concerns MCF-7. Kind of series: Toxicity against human cell line. The series is classed as cell-based.
The subject of another series is E. coli. Kind of series: E. coli cell growth inhibition. The series is classed as cell-based. To be noted: DH5α, K12.
Series [1] relates to USA300 (MRSA) strain of S. aureus. Kind of series: S. aureus cell growth inhibition. The series is classed as cell-based. The settings on record: Staphylococcus aureus, MRSA|USA300, read-out: MIC90 against S. aureus.
The test system of series [2] is staphyloxanthin pigment formation. To be noted: read-out: carotenoid pigment formation in cells IC50; cited from earlier work.
In series [3] the target is T2, S. aureus CrtM (Staphylococcus aureus, UniProt A9JQL9). The settings on record: read-out: CrtM IC50; cited from earlier work.
T2 sequence (A9JQL9 whole entry): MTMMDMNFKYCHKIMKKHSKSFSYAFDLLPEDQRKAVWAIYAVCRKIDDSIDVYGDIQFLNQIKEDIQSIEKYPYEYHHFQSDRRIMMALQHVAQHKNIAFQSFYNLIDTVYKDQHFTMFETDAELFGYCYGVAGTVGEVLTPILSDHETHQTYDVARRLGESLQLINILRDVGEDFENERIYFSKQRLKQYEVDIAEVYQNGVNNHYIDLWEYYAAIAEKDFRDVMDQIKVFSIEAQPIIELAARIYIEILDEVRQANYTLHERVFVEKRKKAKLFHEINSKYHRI
The target of series [4] is T2, S. aureus CrtM. Put plainly: S. aureus CrtM. Type of series: biochemical.
The subject of a further series is bacteria. To be noted: background statement, no reference given; cited from earlier work.
In a further series the test system is FPPS. To be noted: background statement, no reference given; cited from earlier work.

In brackets after ≈: the same amount, converted by molar mass.

The Ki is the equilibrium dissociation constant of an inhibitor or competing ligand from its target. Read a high Ki as a looser hold on the target. At S. aureus UPPS, `CCCCCCCCCCOc1cccc(C(=O)/C=C(\O)C(=O)O)c1` [Compound 44] displayed a Ki of 230 nM.
By MIC90 is commonly meant the lowest concentration that inhibits either 90% of growth or 90% of the strains tested, depending on the study. Turning to `CCCCCCCCOc1ccc(C(=O)/C=C(\O)C(=O)O)cc1` [Compound 45], in the series on MCF-7, the “activity against human cell lines” value is “very little activity”. The “activity against E. coli” value in the series with E. coli is “very little activity”. The molecule further had a Ki at S. aureus UPPS of 670 nM. Further, in [1], the MIC90 is 0.25 to 0.5 µg/mL (≈ 0.78 to 1.56 µM).
For orientation: IC50 means the point on the concentration scale where inhibition reaches its midpoint. `O=P(O)(O)C(CCCc1cccc(Oc2ccccc2)c1)S(=O)(=O)O` (stereo not shown) [Compound 3]: the half-inhibitory concentration (IC50) in series [2] is about 110 nM; on S. aureus CrtM [3] it was about 7900 nM.
As to `CCCCCCCCCCOc1cccc(Cn2ccc(O)c(C(=O)O)c2=O)c1` [Compound 42], the “CrtM inhibition, in words” value at S. aureus CrtM [4] is “no activity”.
On to `O=P(O)(O)C(O)(Cn1ccnc1)P(=O)(O)O` [zoledronate], for which, in the series with bacteria, the antibacterial activity result is listed as “little antibacterial activity”. The FPPS inhibition potency entry in the series on FPPS is “potent, low nM inhibitors”.

(Values after PMC3363326 (ACS medicinal chemistry letters, 2012).)
